From PubChem BioAssay (NCI)
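Step 1: Grow cells in 96-well plates. Step 2: Expose to compound for 48 hours at 5 concentrations. Step 3: Interpolate endpoints linearly; if unreached, use highest concentration. Definition used: TGI = concentration required for complete inhibition of growth.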

How the values were obtained:
Test in all cases: NCI-60 cell line screen, 48 h
HOP-62 NSCLC = tested on: HOP-62 NSCLC
HCT-116 colon = tested on: HCT-116 colon
XF 498 CNS = tested on: XF 498 CNS
HOP-92 NSCLC = tested on: HOP-92 NSCLC
NCI-H522 lung = tested on: NCI-H522 lung
RPMI-8226 leukemia = tested on: RPMI-8226 leukemia
SF-295 CNS = tested on: SF-295 CNS
HOP-18 NSCLC = tested on: HOP-18 NSCLC
CAKI-1 renal = tested on: CAKI-1 renal
EKVX NSCLC = tested on: EKVX NSCLC
KM12 colon = tested on: KM12 colon
K-562 leukemia = tested on: K-562 leukemia
COLO 205 colon = tested on: COLO 205 colon
UACC-257 melanoma = tested on: UACC-257 melanoma
NCI-H226 lung = tested on: NCI-H226 lung
HT29 colon = tested on: HT29 colon
UO-31 renal = tested on: UO-31 renal
SK-MEL-2 melanoma = tested on: SK-MEL-2 melanoma
SNB-78 CNS = tested on: SNB-78 CNS
DMS 273 small cell lung = tested on: DMS 273 small cell lung
NCI-H460 lung = tested on: NCI-H460 lung
LXFL 529 NSCLC = tested on: LXFL 529 NSCLC
786-0 renal = tested on: 786-0 renal
LOX IMVI melanoma = tested on: LOX IMVI melanoma
SW-620 colon = tested on: SW-620 colon
A498 renal = tested on: A498 renal
ACHN renal = tested on: ACHN renal
OVCAR-8 ovarian = tested on: OVCAR-8 ovarian
IGROV1 ovarian = tested on: IGROV1 ovarian
RXF 393 renal = tested on: RXF 393 renal
U251 CNS = tested on: U251 CNS
SNB-75 CNS = tested on: SNB-75 CNS
CCRF-CEM leukemia = tested on: CCRF-CEM leukemia
HL-60(TB) leukemia = tested on: HL-60(TB) leukemia
DLD-1 colon = tested on: DLD-1 colon
HCC-2998 colon = tested on: HCC-2998 colon
OVCAR-4 ovarian = tested on: OVCAR-4 ovarian
MALME-3M melanoma = tested on: MALME-3M melanoma
SK-MEL-28 melanoma = tested on: SK-MEL-28 melanoma
M14 melanoma = tested on: M14 melanoma
SNB-19 CNS = tested on: SNB-19 CNS
A549 NSCLC = tested on: A549 NSCLC
DMS 114 small cell lung = tested on: DMS 114 small cell lung
UACC-62 melanoma = tested on: UACC-62 melanoma
SF-268 CNS = tested on: SF-268 CNS
MOLT-4 leukemia = tested on: MOLT-4 leukemia
NCI-H23 lung = tested on: NCI-H23 lung
SF-539 CNS = tested on: SF-539 CNS
TK-10 renal = tested on: TK-10 renal
KM20L2 colon = tested on: KM20L2 colon
SN12C renal = tested on: SN12C renal
SR leukemia = tested on: SR leukemia
OVCAR-5 ovarian = tested on: OVCAR-5 ovarian
SK-OV-3 ovarian = tested on: SK-OV-3 ovarian
OVCAR-3 ovarian = tested on: OVCAR-3 ovarian
M19-MEL melanoma = tested on: M19-MEL melanoma
RXF-631 renal = tested on: RXF-631 renal
HCT-15 colon = tested on: HCT-15 colon
SK-MEL-5 melanoma = tested on: SK-MEL-5 melanoma

SMILES: COc1cc(CCC(=O)NS(=O)(=O)c2ccccc2)cc(OC)c1OC
- TGI (HOP-62 NSCLC): > 100 µM
- TGI (HCT-116 colon): > 100 µM
- TGI (XF 498 CNS): > 100 µM
- TGI (HOP-92 NSCLC): > 100 µM
- TGI (NCI-H522 lung): > 100 µM
- TGI (RPMI-8226 leukemia): > 100 µM
- TGI (SF-295 CNS): > 100 µM
- TGI (HOP-18 NSCLC): > 100 µM
- TGI (CAKI-1 renal): > 100 µM
- TGI (EKVX NSCLC): > 100 µM
- TGI (KM12 colon): > 100 µM
- TGI (K-562 leukemia): > 100 µM
- TGI (COLO 205 colon): > 100 µM
- TGI (UACC-257 melanoma): > 100 µM
- TGI (NCI-H226 lung): > 100 µM
- TGI (HT29 colon): > 100 µM
- TGI (UO-31 renal): > 100 µM
- TGI (SK-MEL-2 melanoma): > 100 µM
- TGI (SNB-78 CNS): > 100 µM
- TGI (DMS 273 small cell lung): > 100 µM
- TGI (NCI-H460 lung): > 100 µM
- TGI (LXFL 529 NSCLC): > 100 µM
- TGI (786-0 renal): > 100 µM
- TGI (LOX IMVI melanoma): > 100 µM
- TGI (SW-620 colon): > 100 µM
- TGI (A498 renal): > 100 µM
- TGI (ACHN renal): > 100 µM
- TGI (OVCAR-8 ovarian): > 100 µM
- TGI (IGROV1 ovarian): > 100 µM
- TGI (RXF 393 renal): > 100 µM
- TGI (U251 CNS): > 100 µM
- TGI (SNB-75 CNS): > 100 µM
- TGI (CCRF-CEM leukemia): > 100 µM
- TGI (HL-60(TB) leukemia): > 100 µM
- TGI (DLD-1 colon): > 100 µM
- TGI (HCC-2998 colon): > 100 µM
- TGI (OVCAR-4 ovarian): > 100 µM
- TGI (MALME-3M melanoma): > 100 µM
- TGI (SK-MEL-28 melanoma): > 100 µM
- TGI (M14 melanoma): > 100 µM
- TGI (SNB-19 CNS): > 100 µM
- TGI (A549 NSCLC): > 100 µM
- TGI (DMS 114 small cell lung): > 100 µM
- TGI (UACC-62 melanoma): > 100 µM
- TGI (SF-268 CNS): > 100 µM
- TGI (MOLT-4 leukemia): > 100 µM
- TGI (NCI-H23 lung): > 100 µM
- TGI (SF-539 CNS): > 100 µM
- TGI (TK-10 renal): > 100 µM
- TGI (KM20L2 colon): > 100 µM
- TGI (SN12C renal): > 100 µM
- TGI (SR leukemia): > 100 µM
- TGI (OVCAR-5 ovarian): > 100 µM
- TGI (SK-OV-3 ovarian): > 100 µM
- TGI (OVCAR-3 ovarian): > 100 µM

SMILES: Oc1cccc2nc3cc(CN4CCOCC4)c(CN4CCOCC4)cc3nc12
- TGI (HOP-62 NSCLC): > 100 µM
- TGI (M19-MEL melanoma): 66.5 µM
- TGI (HCT-116 colon): > 100 µM
- TGI (XF 498 CNS): > 100 µM
- TGI (HOP-92 NSCLC): > 100 µM
- TGI (NCI-H522 lung): > 100 µM
- TGI (SF-295 CNS): > 100 µM
- TGI (HOP-18 NSCLC): > 100 µM
- TGI (CAKI-1 renal): > 100 µM
- TGI (EKVX NSCLC): > 100 µM
- TGI (KM12 colon): > 100 µM
- TGI (K-562 leukemia): > 100 µM
- TGI (COLO 205 colon): > 100 µM
- TGI (RXF-631 renal): > 100 µM
- TGI (UACC-257 melanoma): > 100 µM
- TGI (NCI-H226 lung): > 100 µM
- TGI (HT29 colon): > 100 µM
- TGI (UO-31 renal): > 100 µM
- TGI (SK-MEL-2 melanoma): > 100 µM
- TGI (SNB-78 CNS): > 100 µM
- TGI (DMS 273 small cell lung): > 100 µM
- TGI (NCI-H460 lung): > 100 µM
- TGI (LXFL 529 NSCLC): > 100 µM
- TGI (786-0 renal): > 100 µM
- TGI (LOX IMVI melanoma): > 100 µM
- TGI (SW-620 colon): > 100 µM
- TGI (A498 renal): > 100 µM
- TGI (ACHN renal): > 100 µM
- TGI (OVCAR-8 ovarian): > 100 µM
- TGI (IGROV1 ovarian): > 100 µM
- TGI (RXF 393 renal): > 100 µM
- TGI (U251 CNS): > 100 µM
- TGI (SNB-75 CNS): > 100 µM
- TGI (CCRF-CEM leukemia): > 100 µM
- TGI (HL-60(TB) leukemia): > 100 µM
- TGI (DLD-1 colon): > 100 µM
- TGI (HCC-2998 colon): > 100 µM
- TGI (OVCAR-4 ovarian): > 100 µM
- TGI (MALME-3M melanoma): > 100 µM
- TGI (SK-MEL-28 melanoma): > 100 µM
- TGI (M14 melanoma): 38.9 µM
- TGI (SNB-19 CNS): > 100 µM
- TGI (A549 NSCLC): > 100 µM
- TGI (UACC-62 melanoma): 76.8 µM
- TGI (SF-268 CNS): > 100 µM
- TGI (MOLT-4 leukemia): > 100 µM
- TGI (NCI-H23 lung): > 100 µM
- TGI (HCT-15 colon): > 100 µM
- TGI (SF-539 CNS): > 100 µM
- TGI (TK-10 renal): > 100 µM
- TGI (KM20L2 colon): > 100 µM
- TGI (SK-MEL-5 melanoma): 55.3 µM
- TGI (SN12C renal): > 100 µM
- TGI (SR leukemia): > 100 µM
- TGI (OVCAR-5 ovarian): > 100 µM
- TGI (SK-OV-3 ovarian): > 100 µM
- TGI (OVCAR-3 ovarian): > 100 µM
